According to ChEMBL document CHEMBL3243998, “Conformation of 2,9-dimethyl-3'-hydroxy-5-phenyl-6,7-genzomorphan and its relation to other analgetics and enkephalin” (J Med Chem, 1978):

How the values were obtained:
[1] = tested on: Mus musculus; experiment: Analgesic activity in sc dosed mouse assessed as inhibition of phenylquinone-induced writhing; assay type: functional; parameters: log(1/ED50): unit not given here
[2] = target: Opioid receptor (Rattus norvegicus, UniProt P33533+P34975+P33535); experiment: Displacement of [3H]naloxone from Sprague-Dawley rat cerebellum opioid receptor assessed as relative receptor affinity by scintillation counting; assay type: protein assay
[3] = Mus musculus, sc, read-out: ED50

With `C[C@@H]1[C@@H]2Cc3ccc(O)cc3[C@@]1(c1ccccc1)CCN2C.Cl` the “log(1/ED50)” value [1] was 1.9, the ED50 [1, 3] was 4.2 mg/kg and the IC50 [2] was 10000 nM.

For `CCOC(=O)C1(c2ccccc2)CCN(C)CC1.Cl` [MEPERIDINE HYDROCHLORIDE], the “log(1/ED50)” value [1] was 1.61 and the ED50 [1, 3] was 7 mg/kg.

In the case of `C[C@H]1[C@H]2Cc3ccc(O)cc3[C@]1(c1ccccc1)CCN2C.Cl`, the “log(1/ED50)” value [1] is reported as 2.82, the ED50 [1, 3] is reported as 0.5 mg/kg and the IC50 [2] is reported as 19 nM.

For `CN1CCC2(c3ccccc3)CC1Cc1ccccc12.O=C(O)C(O)C(O)C(=O)O` (single isomer, unassigned; form 2), the ED50 [1] was 8 mg/kg, the “log(1/ED50)” value [1] was 1.71 and the IC50 [2] was 3000 nM.

`CN1CCC2(c3ccccc3)CC1Cc1ccccc12.O=C(O)C(O)C(O)C(=O)O` (single isomer, unassigned; form 1) was tested, and the “log(1/ED50)” value [1] was 1.88, the ED50 [1, 3] was 5.5 mg/kg and the IC50 [2] was 600 nM.

With `CN1CC[C@]23CCCC[C@H]2[C@H]1Cc1ccc(O)cc13.O.O=C(O)C(O)C(O)C(=O)O` the ED50 [1, 3] was 0.24 mg/kg.

`C[C@H]1[C@H]2Cc3ccc(O)cc3[C@]1(c1ccccc1)CC[N+]2(C)C.[I-]` was tested, and the IC50 [2] was 320 nM.
